Results as given in ChEMBL document CHEMBL1133920, “Novel 4-piperidinopyridine inhibitors of oxidosqualene cyclase-lanosterol synthase derived by consideration of inhibitor pK(a)” (Bioorg Med Chem Lett, 2001).

Assays:
Rattus norvegicus [1] = species on record: Rattus norvegicus; assay: Effective dose for the 50% inhibition of rat cholesterol biosynthesis; type: functional
Rattus norvegicus [2] = species on record: Rattus norvegicus; assay: Effective dose for the 80% inhibition of rat cholesterol biosynthesis; type: functional
[3] = target: T1, Lanosterol synthase (Rattus norvegicus) (UniProt P48450); assay: Percent inhibition of rat microsomal oxidosqualene cyclase-lanosterol synthase (OSC) at 100 nM
T1 sequence (whole entry): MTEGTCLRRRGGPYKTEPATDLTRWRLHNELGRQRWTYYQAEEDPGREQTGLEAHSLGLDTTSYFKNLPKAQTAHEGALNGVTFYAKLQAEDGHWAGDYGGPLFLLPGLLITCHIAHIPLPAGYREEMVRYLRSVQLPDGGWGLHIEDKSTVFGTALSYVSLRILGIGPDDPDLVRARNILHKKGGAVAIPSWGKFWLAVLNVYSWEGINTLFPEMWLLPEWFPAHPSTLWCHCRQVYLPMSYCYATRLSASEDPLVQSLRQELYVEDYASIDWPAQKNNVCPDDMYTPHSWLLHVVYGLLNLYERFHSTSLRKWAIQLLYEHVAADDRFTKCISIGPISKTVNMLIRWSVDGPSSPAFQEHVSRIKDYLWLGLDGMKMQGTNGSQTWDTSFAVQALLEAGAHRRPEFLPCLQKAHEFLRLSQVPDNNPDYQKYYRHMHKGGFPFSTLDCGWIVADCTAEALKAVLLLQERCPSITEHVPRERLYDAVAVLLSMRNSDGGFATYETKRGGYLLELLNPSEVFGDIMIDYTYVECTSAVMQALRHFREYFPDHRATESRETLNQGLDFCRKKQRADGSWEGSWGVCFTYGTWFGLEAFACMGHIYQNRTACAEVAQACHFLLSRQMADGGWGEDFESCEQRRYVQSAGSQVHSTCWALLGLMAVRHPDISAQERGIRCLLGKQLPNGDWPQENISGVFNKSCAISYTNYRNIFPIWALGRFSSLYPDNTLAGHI

Rattus norvegicus [4] = assay: Percent feeding effect was determined after oral administration of 100 mg/kg in rat; type: functional
Rattus norvegicus [5] = assay: Percent reduction in food intake was determined after oral administration of 100 mg/kg in rat after 24 hours
[6] = pKa was determined; type: physicochemical
Rattus norvegicus [7] = assay: Percent reduction in food intake was determined after oral administration of 50 mg/kg in rat after 24 hours; type: functional
[8] = Concentration for the inhibition of rat microsomal oxidosqualene cyclase-lanosterol synthase (OSC)

| inhibition [3] | SMILES | ED50 (Rattus norvegicus [1]) | ED80 (Rattus norvegicus [2]) | further results |
| --- | --- | --- | --- | --- |
| 100% | O=C(C1CCN(S(=O)(=O)c2ccc(Br)cc2)CC1)N1CCC(c2ccncc2)CC1 | 0.5 mg/kg | 4.7 mg/kg | – |
| 100% | O=C(N1CCN(c2ccncc2Cl)CC1)N1CCN(S(=O)(=O)c2ccc(Br)cc2)CC1 | 1.1 mg/kg | 2.3 mg/kg | – |
| 97% | O=C(N1CCC(c2ccncc2)CC1)N1CCN(S(=O)(=O)c2ccc(F)cc2)CC1 | 0.5 mg/kg | – | – |
| 100% | O=C(C1CCN(c2ccncc2F)CC1)N1CCN(S(=O)(=O)c2ccc(C(F)(F)F)cc2)CC1 | 0.4 mg/kg | 1 mg/kg | pKa [6]: 6.7 |
| 100% | O=C(N1CCN(c2ccncc2Cl)CC1)N1CCN(S(=O)(=O)c2ccc(F)cc2)CC1 | 1.1 mg/kg | 2.3 mg/kg | – |
| 100% | O=C(N1CCN(c2ccncc2Cl)CC1)N1CCN(S(=O)(=O)c2ccc(C(F)(F)F)cc2)CC1 | 0.2 mg/kg | 0.7 mg/kg | – |
| 47% | O=C(C1CCN(c2ncncc2Br)CC1)N1CCN(S(=O)(=O)c2ccc(Br)cc2)CC1 | > 2 mg/kg | – | – |

Continued, compound first:

| SMILES | inhibition [3] | ED50 (Rattus norvegicus [1]) | ED80 (Rattus norvegicus [2]) | further results |
| --- | --- | --- | --- | --- |
| O=C(N1CCC(c2ccncc2)CC1)N1CCN(S(=O)(=O)c2ccc(Br)cc2)CC1 | 94% | 0.4 mg/kg | 1.8 mg/kg | Effect (Rattus norvegicus [4]): 23% |
| O=C(C1CCN(c2ccncn2)CC1)N1CCN(S(=O)(=O)c2ccc(Br)cc2)CC1 | – | 0.4 mg/kg | – | Reduction (Rattus norvegicus [5]): 17% |
| O=C(c1ccc(C(F)(F)F)cc1)N1CCC(=Cc2ccc(C3=NCCO3)cc2)CC1 | – | – | – | Reduction (Rattus norvegicus [5]): 15% |
| O=C(C1CCN(c2ccncc2Br)CC1)N1CCN(S(=O)(=O)c2ccc(Br)cc2)CC1 | 89% | 0.5 mg/kg | – | – |
| O=C(C1CCN(c2ccncc2)CC1)N1CCN(S(=O)(=O)c2ccc(Br)cc2)CC1 | – | – | – | Reduction (Rattus norvegicus [7]): 64% |
| O=C(N1CCN(c2ccncc2Cl)CC1)N1CCN(S(=O)(=O)c2ccc(Cl)cc2)CC1 | 87% | 0.6 mg/kg | 1.4 mg/kg | pKa [6]: 5.8; Effect (Rattus norvegicus [4]): 14% |
| O=C(N1CCC(c2ccncc2)CC1)N1CCN(S(=O)(=O)c2ccc(Cl)cc2)CC1 | 91% | 1.7 mg/kg | 3.6 mg/kg | pKa [6]: 5.8 |
| O=C(c1ccc(Cl)cc1)c1ccc(OC2CN3CCC2CC3)cc1 (stereo not given) | – | – | – | IC50 [8]: 58 nM |
